Molecules are shown by their SMILES. Where a SMILES comes first, the peptide text is derived from it. [ ]: non-standard residue; d: D form. A value given as a limit tells only on which side of the number the result lay.

The values below come from PMC11350846, “Synthesis of Second-Generation Analogs of Temporin-SHa Peptide Having Broad-Spectrum Antibacterial and Anticancer Effects” (Antibiotics, 2024).

One assay deals with A. baumannii (DSM 30007). To be noted: A. baumannii (DSM 30007), 18-24 h. How it is done:
(§1) The peptides were assessed for their antibacterial activity by determining the minimum inhibitory concentration (MIC) using the two-fold serial dilution method following the National Committee of Clinical Laboratory Standards, as previously described. Gram-negative (Acinetobacter baumannii (DSM 30007), Escherichia coli (ATCC 8739), Enterobacter cloacae (DSM 30054), Helicobacter pylori (ATCC 43504), Klebsiella pneumoniae (DSM 26371), Pseudomonas aeruginosa (ATCC 9027)) and Gram-positive bacteria (Bacillus subtilis (ATCC 6633), Enterococcus faecalis (DSM 2570), Enterococcus faecium (DSM 20477), Staphylococcus aureus (ATCC 6538)) were used for the antibacterial activity assays. In brief, 3 mL of Mueller–Hinton (MH) broth was inoculated with single clusters of the various bacterial strains and incubated overnight at 37 °C with agitation at 200 rpm. The next day, the bacterial solution was diluted with sterile MH by 1/100 and further incubated at 37 °C and 200 rpm until the bacteria reached the log phase growth (OD600nm around 0.6). The bacterial suspension was then adjusted to a density of approximately 10^5 bacteria/mL, and 100 μL was added per well of 96-well microplates (Greiner BioOne, Les Ulis, France), followed by exposure to increasing concentrations of peptides (from 0 to 100 µM, 1:2 dilution). Plates were then incubated at 37 °C for 18-24 h under either aerobic (for A. baumannii, E. cloacae, E. coli, P. aeruginosa, B. subtilis, and S. aureus) or micro-aerobic conditions generated using GasPak units (for E. faecalis, E. faecium and, H. pylori). […] The optical density (OD) at 600nm was measured using a microplate reader (Biotek, Synergy Mx, Les Ulis, France) after the final incubation. All experiments were performed in triplicate (n = 3).

In the next assay the test system is B. subtilis (ATCC 6633). To be noted: 18-24 h. How it is done: as §1
The subject of a further assay is E. cloacae (DSM 30054). To be noted: E. cloacae (DSM 30054), 18-24 h. How it is done:
as §1

For the next assay, the system named is E. coli (ATCC 8739). To be noted: E. coli (ATCC 8739), 18-24 h. How it is done:
as §1

A further assay deals with E. faecalis (DSM 2570). As to conditions: E. faecalis (DSM 2570), micro-aerobic, 18-24 h. As for the experimental part:
as §1

Another assay concerns E. faecium (DSM 20477). As to conditions: E. faecium (DSM 20477), micro-aerobic, 18-24 h. As for the experimental part:
as §1

The next assay relates to H. pylori (ATCC 43504). To be noted: micro-aerobic, 18-24 h. As for the experimental part: as §1
A further assay concerns K. pneumonia (DSM 26371). To be noted: K. pneumonia (DSM 26371), 18-24 h. As for the experimental part:
as §1

Assay [1] deals with P. aeruginosa (ATCC 9027). As to conditions: P. aeruginosa (ATCC 9027), 18-24 h. As for the experimental part:
as §1

The test system of the next assay is S. aureus (ATCC 6538). As to conditions: 18-24 h. As for the experimental part:
as §1

In the next assay the test system is Breast Cancer (MCF-7). It counts as cell-based, human. To be noted: MCF-7, 48 h; read-out: 50% inhibitory concentrations (IC50), cell proliferation. How it is done: (§2) The antiproliferative activity of the peptides was evaluated, as previously described using human cancer cell lines (A549 (lung), A2780 (ovary), HepG-2 (liver), MCF-7 (breast), MiaPaCa-2 (pancreas), MNT-1 (skin), and PC-3 (prostate)) and normal human lung fibroblasts (IMR-90) or epithelial cells (BEAS-2B). The cells were cultured in DMEM supplemented with 10% FBS, 1% L-glutamine, and 1% antibiotics at 37 °C in a 5% CO2 incubator. For the antiproliferative assay, cells were seeded in 96-well plates at approximately 3000 cells/well. Twenty-four hours later, cells were treated with increasing concentrations of peptides (1:2 serial dilution from 100 µM to 0 µM) for 48 h. After treatment, the number of viable cells was determined using a resazurin-based assay, and the fluorescence intensity was measured with a microplate reader (Ex 530 nm/Em 590 nm). The IC50 values of the peptides (i.e., the concentrations causing 50% inhibition of cell proliferation) were determined using GraphPad® Prism 7 software. The experiments were performed in triplicate (n = 3). The cytotoxicity of the peptides was also evaluated using confluent/no-dividing cells, as previously described. Briefly, human cells were seeded onto 96-well plates at 20,000 cells/well. When they reached 80–90% confluence (after 24–48 h), cells were treated with escalating concentrations of peptides. After 48h incubation, cell viability was measured using a resazurin assay and CC50 (i.e., the concentrations causing 50% inhibition of cell viability) and determined using GraphPad® Prism 7 software. The experiments were performed in triplicate (n = 3).

The subject of the next assay is Liver Cancer (HepG-2). It counts as cell-based, human. As to conditions: HepG-2, 48 h; read-out: 50% inhibitory concentrations (IC50), cell proliferation. As for the experimental part: as §2
In the next assay the test system is Lung Cancer (A549). Format: cell-based, human. As to conditions: A549, 48 h; read-out: 50% inhibitory concentrations (IC50), cell proliferation. As for the experimental part: as §2
Assay [2] has as its system Normal Lung Epithelium (BEAS-2B). It counts as cell-based, human. As to conditions: BEAS-2B normal cells, 48 h; read-out: 50% inhibitory concentrations (IC50), cell proliferation. How it is done: as §2
In assay [3] the test system is Normal Lung Fibroblast (IMR-90). It counts as cell-based, human. To be noted: IMR-90 normal cells, 48 h; read-out: 50% inhibitory concentrations (IC50), cell proliferation. How it is done: as §2
The test system of a further assay is Ovarian Cancer (A2780). Format: cell-based, human. To be noted: A2780, 48 h; read-out: 50% inhibitory concentrations (IC50), cell proliferation. How it is done:
as §2

Assay [4] relates to Pancreatic Cancer (MiaPaCa-2). It counts as cell-based, human. To be noted: MiaPaCa-2, 48 h; read-out: 50% inhibitory concentrations (IC50), cell proliferation. How it is done: as §2
Another assay relates to Prostate Cancer (PC-3). Format: cell-based, human. To be noted: PC-3, 48 h; read-out: 50% inhibitory concentrations (IC50), cell proliferation. How it is done:
as §2

For a further assay, the system named is Skin Cancer (MNT-1). It counts as cell-based, human. As to conditions: MNT-1, 48 h; read-out: 50% inhibitory concentrations (IC50), cell proliferation. How it is done:
as §2

For `CC[C@H](C)[C@H](NC(=O)CNC(=O)[C@H](CO)NC(=O)[C@H](CC(C)C)NC(=O)[C@@H](N)Cc1ccccc1)C(=O)N[C@H](C(=O)NCC(=O)N[C@@H](CCSC)C(=O)N[C@@H](CC(C)C)C(=O)NCC(=O)N[C@@H](CCCCN)C(=O)N[C@@H](CC(C)C)C(=O)N[C@@H](Cc1ccccc1)C(N)=O)C(C)C` [Temporin-SHa (1), H-Phe^1-Leu^2-Ser^3-Gly^4-IIe^5-Val^6-Gly^7-Met^8-Leu^9-Gly^10-Lys^11-Leu^12-Phe^13-NH2, reference compound] (H-FLSGIVGMLGKLF-NH2), the “minimum inhibitory concentration (MIC)” value in the assay with A. baumannii (DSM 30007) was 6.25 µM; in the assay on B. subtilis (ATCC 6633), 1.56 µM; with E. cloacae (DSM 30054) it was 50 µM; in the assay on E. coli (ATCC 8739), 50 µM; in the assay on E. faecalis (DSM 2570), 12.5 µM; with E. faecium (DSM 20477), 6.25 µM. The “minimum inhibitory concentration (MIC)” value was 3.12 µM in the assay with H. pylori (ATCC 43504), 50 µM with K. pneumonia (DSM 26371), 50 µM in assay [1] and 3.12 µM in the assay on S. aureus (ATCC 6538). The IC50 in the assay with Breast Cancer (MCF-7) is 26.9 ± 8.2 µM; in the assay with Liver Cancer (HepG-2) it was greater than 100 µM; in the assay on Lung Cancer (A549), greater than 100 µM; in assay [2], greater than 100 µM; in assay [3], greater than 100 µM; in the assay on Ovarian Cancer (A2780), greater than 100 µM. The IC50 (in [4]; in the assay with Prostate Cancer (PC-3); with Skin Cancer (MNT-1)) was greater than 100 µM each time.
As for `CC[C@H](C)[C@H](NC(=O)CNC(=O)[C@H](CO)NC(=O)[C@H](CC(C)C)NC(=O)[C@@H](N)Cc1ccccc1)C(=O)N[C@H](C(=O)NCC(=O)N[C@@H](CCSC)C(=O)N[C@@H](CC(C)C)C(=O)N[C@H](C)C(=O)N[C@@H](CCCCN)C(=O)N[C@@H](CC(C)C)C(=O)N[C@@H](Cc1ccccc1)C(N)=O)C(C)C` [[G10a]-SHa (2), H-Phe^1-Leu^2-Ser^3-Gly^4-IIe^5-Val^6-Gly^7-Met^8-Leu^9-D-Ala^10-Lys^11-Leu^12-Phe^13-NH2] (H-FLSGIVGML[dA]KLF-NH2), the “minimum inhibitory concentration (MIC)” value in the assay on A. baumannii (DSM 30007) is 12.5 µM; in the assay with B. subtilis (ATCC 6633) it was 3.12 µM; in the assay with E. cloacae (DSM 30054), greater than 100 µM; in the assay with E. coli (ATCC 8739), 100 µM; in the assay with E. faecalis (DSM 2570) it was 25 µM; in the assay with E. faecium (DSM 20477) it was greater than 100 µM. For the same compound, the “minimum inhibitory concentration (MIC)” value with H. pylori (ATCC 43504) was 3.12 µM; in the assay on K. pneumonia (DSM 26371) it was 100 µM; in assay [1] it was greater than 100 µM; in the assay with S. aureus (ATCC 6538) it was 3.12 µM. Also, the IC50 in the assay on Breast Cancer (MCF-7) came to 18.3 ± 8 µM; in the assay with Liver Cancer (HepG-2) it was 37.2 ± 5 µM; with Lung Cancer (A549), 12.1 ± 0.4 µM; in assay [2], 22.6 ± 0.7 µM; in assay [3], 33 ± 3.1 µM; in the assay with Ovarian Cancer (A2780), 13.4 ± 0.7 µM. In addition, the IC50 in assay [4] stood at 23.1 ± 4.3 µM; with Prostate Cancer (PC-3), 13.1 ± 2.4 µM; with Skin Cancer (MNT-1) it was 14 ± 0.8 µM.
